{
  "source": "patent US12492173B2",
  "about": "“Herbicidal substituted N-tetrazolyl aryl carboxamides” (Bayer Aktiengesellschaft, priority 2019, dated 2025)",
  "type_in_all_cases": "in vivo",
  "key": {"Cyperus esculentus": {"tested_on": "Cyperus esculentus", "test": "Pre-emergence herbicidal action, CYPES", "design": "key: % activity: 100 = plants have died, 0 = like control plants", "conditions": "comparative experiment, 20 g of a.i./ha", "summary_of_the_method": "(§1)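 Pre-emergence soil spray over sandy loam-covered seeds; greenhouse 3 weeks; % visual damage (0% = control, 100% = dead).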"}, "Hordeum murinum [1]": {"tested_on": "Hordeum murinum", "test": "Pre-emergence herbicidal action, HORMU", "conditions": "dosage 320 g/ha, scored visually after 3 weeks vs untreated controls (100% = plants have died)", "summary_of_the_method": "as §1"}, "Lolium rigidum": {"tested_on": "Lolium rigidum", "test": "Pre-emergence herbicidal action, LOLRI", "conditions": "dosage 320 g/ha, scored visually after 3 weeks vs untreated controls (100% = plants have died)", "from_the_text": "1. Pre-Emergence Herbicidal Action Against Harmful Plants Seeds of monocotyledonous and dicotyledonous weed plants and crop plants are laid out in sandy loam soil in wood-fiber pots and covered with soil. The compounds of the invention, formulated in the form of wettable powders (WP) or as emulsion concentrates (EC), are then applied to the surface of the covering soil in the form of an aqueous suspension or emulsion at a water application rate equating to 600 to 800 l/ha, with addition of 0.2% wetting agent. After the treatment, the pots are placed in a greenhouse and kept under good growth conditions for the trial plants. The damage to the test plants is scored visually after a test period of 3 weeks by comparison with untreated controls (herbicidal activity in percent (%): 100% activity=the plants have died, 0% activity=like control plants). […] The tables below illustrate, in an exemplary manner, the […] herbicidal action of the compounds according to the invention, the herbicidal activity being stated in percent. [table] In the experiments that follow, herbicidal action of numerous inventive compounds and the known compounds that are structurally closest from D1 (WO 2012/028579 A1) and D2 (WO 2018/202535 A1) were compared under the above-specified conditions by the pre-emergence and post-emergence method. The example numbers given in the tables relate to the compounds disclosed in the respective documents. In addition to the compounds disclosed in D1 and D2, the following compounds V-1 to V-14 that are encompassed by D1 or D2 but are not compounds specified therein were used in the comparative experiments: • V-1: 2-(methylsulfanyl)-3-(methylsulfinyl)-N-(1-methyl-1H-tetrazol-5-yl)-4-(trifluoromethyl)benzamide • V-2: 2-(methylsulfanyl)-3-(methylsulfonyl)-N-(1-methyl-1H-tetrazol-5-yl)-4-(trifluoromethyl)benzamide • V-3: 2,3-bis(ethylsulfanyl)-N-(1-methyl-1H-tetrazol-5-yl)-4-(trifluoromethyl)benzamide • V-4: 2-chloro-3-(ethylsulfanyl)-N-(1-methyl-1H-tetrazol-5-yl)-4-(trifluoromethyl)benzamide • V-5: 2-chloro-4-iodo-3-(methylsulfanyl)-N-(1-methyl-1H-tetrazol-5-yl)benzamide • V-6: 2-chloro-4-iodo-3-(methylsulfinyl)-N-(1-methyl-1H-tetrazol-5-yl)benzamide • V-7: 2-chloro-4-iodo-3-(methylsulfonyl)-N-(1-methyl-1H-tetrazol-5-yl)benzamide • V-8: 2-bromo-3-(methylsulfanyl)-N-(1-methyl-1H-tetrazol-5-yl)-4-(trifluoromethyl)benzamide • V-9: 2-bromo-3-(methylsulfinyl)-N-(1-methyl-1H-tetrazol-5-yl)-4-(trifluoromethyl)benzamide • V-10: 2-bromo-3-(methylsulfonyl)-N-(1-methyl-1H-tetrazol-5-yl)-4-(trifluoromethyl)benzamide • V-11: 2-bromo-3-(ethylsulfanyl)-N-(1-methyl-1H-tetrazol-5-yl)-4-(trifluoromethyl)benzamide • V-12: 2-bromo-3-(ethylsulfinyl)-N-(1-methyl-1H-tetrazol-5-yl)-4-(trifluoromethyl)benzamide • V-13: 2-bromo-3-(ethylsulfonyl)-N-(1-methyl-1-1H-tetrazol-5-yl)-4-(trifluoromethyl)benzamide • V-14: 2-cyclopropyl-3-(ethylsulfanyl)-N-(1-methyl-1H-tetrazol-5-yl)-4-(trifluoromethyl)benzamide Herbicidal Pre-Emergence Action: […]"}, "Hordeum murinum [2]": {"tested_on": "Hordeum murinum", "test": "Post-emergence herbicidal action, HORMU", "design": "key: % herbicidal action: 100 = plants died, 0 = like control", "conditions": "Dosage 80 g/ha", "method": "[table] 2. Post-Emergence Herbicidal Action Against Harmful Plants Seeds of monocotyledonous and dicotyledonous weed and crop plants are laid out in sandy loam soil in wood-fiber pots, covered with soil and cultivated in a greenhouse under good growth conditions. 2 to 3 weeks after sowing, the test plants are treated at the one-leaf stage. The compounds of the invention, formulated in the form of wettable powders (WP) or as emulsion concentrates (EC), are then sprayed onto the green parts of the plants in the form of an aqueous suspension or emulsion at a water application rate equating to 600 to 800 l/ha, with addition of 0.2% wetting agent. After the test plants have been left to stand in the greenhouse under optimal growth conditions for about 3 weeks, the action of the preparations is assessed visually in comparison to untreated controls (herbicidal action in percent (%): 100% activity=the plants have died, 0% activity=like control plants). […] The tables below illustrate, in an exemplary manner, the post-emergence herbicidal action of the compounds according to the invention, the herbicidal activity being stated in percent. In the experiments that follow, herbicidal action of numerous inventive compounds and the known compounds that are structurally closest from D1 (WO 2012/028579 A1) and D2 (WO 2018/202535 A1) were compared under the above-specified conditions by the pre-emergence and post-emergence method. The example numbers given in the tables relate to the compounds disclosed in the respective documents. In addition to the compounds disclosed in D1 and D2, the following compounds V-1 to V-14 that are encompassed by D1 or D2 but are not compounds specified therein were used in the comparative experiments: • V-1: 2-(methylsulfanyl)-3-(methylsulfinyl)-N-(1-methyl-1H-tetrazol-5-yl)-4-(trifluoromethyl)benzamide • V-2: 2-(methylsulfanyl)-3-(methylsulfonyl)-N-(1-methyl-1H-tetrazol-5-yl)-4-(trifluoromethyl)benzamide • V-3: 2,3-bis(ethylsulfanyl)-N-(1-methyl-1H-tetrazol-5-yl)-4-(trifluoromethyl)benzamide • V-4: 2-chloro-3-(ethylsulfanyl)-N-(1-methyl-1H-tetrazol-5-yl)-4-(trifluoromethyl)benzamide • V-5: 2-chloro-4-iodo-3-(methylsulfanyl)-N-(1-methyl-1H-tetrazol-5-yl)benzamide • V-6: 2-chloro-4-iodo-3-(methylsulfinyl)-N-(1-methyl-1H-tetrazol-5-yl)benzamide • V-7: 2-chloro-4-iodo-3-(methylsulfonyl)-N-(1-methyl-1H-tetrazol-5-yl)benzamide • V-8: 2-bromo-3-(methylsulfanyl)-N-(1-methyl-1H-tetrazol-5-yl)-4-(trifluoromethyl)benzamide • V-9: 2-bromo-3-(methylsulfinyl)-N-(1-methyl-1H-tetrazol-5-yl)-4-(trifluoromethyl)benzamide • V-10: 2-bromo-3-(methylsulfonyl)-N-(1-methyl-1H-tetrazol-5-yl)-4-(trifluoromethyl)benzamide • V-11: 2-bromo-3-(ethylsulfanyl)-N-(1-methyl-1H-tetrazol-5-yl)-4-(trifluoromethyl)benzamide • V-12: 2-bromo-3-(ethylsulfinyl)-N-(1-methyl-1H-tetrazol-5-yl)-4-(trifluoromethyl)benzamide • V-13: 2-bromo-3-(ethylsulfonyl)-N-(1-methyl-1-1H-tetrazol-5-yl)-4-(trifluoromethyl)benzamide • V-14: 2-cyclopropyl-3-(ethylsulfanyl)-N-(1-methyl-1H-tetrazol-5-yl)-4-(trifluoromethyl)benzamide Herbicidal Pre-Emergence Action: […]"}, "Alopecurus myosuroides": {"tested_on": "Alopecurus myosuroides", "test": "Pre-emergence herbicidal action, ALOMY", "design": "key: % activity: 100 = plants have died, 0 = like control plants", "conditions": "comparative experiment, 20 g of a.i./ha", "summary_of_the_method": "as §1"}},
  "data": [
    {"smiles": "COc1c(C(=O)Nc2nnnn2C)ccc(C(F)(F)F)c1CSC", "note": "[Example 1-134]", "values": [
      {"measurement": "Herbicidal action against CYPES", "setting": "Cyperus esculentus", "value": 50}
    ]},
    {"smiles": "CCCn1nnnc1NC(=O)c1ccc(C(F)F)c(C[S+]([O-])CC)c1Cl", "note": "(centres unmarked) [Example 3-324]", "values": [
      {"measurement": "herbicidal activity HORMU", "setting": "Hordeum murinum [1]", "value": 100, "unit": "%"},
      {"measurement": "herbicidal activity LOLRI", "setting": "Lolium rigidum", "value": 100, "unit": "%"},
      {"measurement": "herbicidal action HORMU", "setting": "Hordeum murinum [2]", "value": 80}
    ]},
    {"smiles": "CSCc1c(C(F)(F)F)ccc(C(=O)Nc2nnnn2C)c1Br", "note": "[Example 1-380]", "values": [
      {"measurement": "Herbicidal action against CYPES", "setting": "Cyperus esculentus", "value": 60}
    ]},
    {"smiles": "Cn1nnnc1NC(=O)c1ccc(C(F)(F)F)c(C[S+](C)[O-])c1Br", "note": "(centres unmarked) [Example 1-381]", "values": [
      {"measurement": "Herbicidal action against ALOMY", "setting": "Alopecurus myosuroides", "value": 50}
    ]},
    {"smiles": "C=CCSCc1c(C(F)(F)F)ccc(C(=O)Nc2nnnn2C)c1Cl", "note": "[Example 1-308]", "values": [
      {"measurement": "herbicidal activity LOLRI", "setting": "Lolium rigidum", "value": 90, "unit": "%"}
    ]},
    {"smiles": "Cn1nnnc1NC(=O)c1ccc(C(F)(F)F)c(CS(C)(=O)=O)c1Cl", "note": "[Example 1-298]", "values": [
      {"measurement": "Herbicidal action against CYPES", "setting": "Cyperus esculentus", "value": 100}
    ]},
    {"smiles": "Cn1nnnc1NC(=O)c1ccc(C(F)(F)F)c(CS(C)(=O)=O)c1Br", "note": "[Example 1-382, 2-bromo-3-[(methylsulfonyl)methyl]-N-(1-methyl-1H-tetrazol-5-yl)-4-(trifluoromethyl)benzamide]", "values": [
      {"measurement": "Herbicidal action against ALOMY", "setting": "Alopecurus myosuroides", "value": 30}
    ]},
    {"smiles": "Cn1nnnc1NC(=O)c1ccc(C(F)(F)F)c(C[S+](C)[O-])c1Cl", "note": "(racemic) [Example 1-297]", "values": [
      {"measurement": "Herbicidal action against CYPES", "setting": "Cyperus esculentus", "value": 100}
    ]},
    {"smiles": "CCn1nnnc1NC(=O)c1ccc(C(F)(F)F)c(CS(C)(=O)=O)c1SC", "note": "[Example 2-163]", "values": [
      {"measurement": "herbicidal action HORMU", "setting": "Hordeum murinum [2]", "value": 80}
    ]}
  ]
}
